Assay results published in paper PMC12658631, “Synthesis and Antitrypanosomal Activity of Novel 2‑Nitroimidazole-3,5-Disubstituted Isoxazole Derivatives with Diaryl Ether and Thioether Substituents” (ACS Omega, 2025).
Like-named read-outs stand apart in the source and are kept apart here.

Columns and labels:
[1] = test system: T. cruzi intracellular amastigotes (Tulahuen lacZ strain); test: Antitrypanosomal assay, intracellular amastigotes in LLC-MK2 cells, CPRG readout; assay type: cell-based, Trypanosoma cruzi; details: for IC50: Trypanosoma cruzi, read-out: Amastigote IC50 (μM ± SD); for activity category (active / moderately active / inactive): category by amastigote IC50
Method: (§1) The cytotoxicity evaluation and the determination of the selectivity index (SI) were done on LLC-MK2 cells.
Initially, 5 × 10^3 LLC-MK2 cells/well were infected with trypomastigotes in 96-well plates at a parasite/cell ratio of 10:1. After 48 h, plates were washed twice with PBS before adding compounds in a serial dilution range of 100 μM to 0.78 μM in fresh RPMI 1640 medium (Sigma-Aldrich). As a control, infected untreated cells (100% infection control) were employed. Following 72 h of incubation, amastigote viability tests were performed using 50 μL of PBS containing 2% Triton X-100 and 200 μM CPRG. Tulahuen lacZ strain expressing galactosidase enzyme were used, which catalyzes the yellow reagent of CPRG into a red chromophore that can be easily detected by absorbance at 570 nm after 4 h at 37 °C (microplate reader – Synergy H1). The percentage of amastigotes inhibition (IC50) was calculated as 100-(absorbance of treated infected cells)/(absorbance mean of untreated infected cells) × 100.

Cytotoxicity assay (MTT) = assay type: cell-based; details: rhesus monkey, LLC-MK2 cells, read-out: LLC-MK2 CC50 (μM ± SD)
Method: as §1
To assess chemical cytotoxicity, MTT (3-(4,5-Dimethyl-2-thiazolyl)-2,5-diphenyl-2H-tetrazolium bromide, Sigma-Aldrich)-based kit reagents were employed. LLC-MK2 cells were incubated in 96-well plates for 48 h at a concentration of 5 × 10^3 cells/well. Cells were then washed twice with PBS (Sigma-Aldrich) before being incubated with compounds in a serial dilution from 200 μM to 1.56 μM in fresh RPMI 1640 medium (Sigma-Aldrich). After 72 h, 50 μL of MTT solution (2.0 mg/mL) was added to each well, and the plates were incubated for another 4 h at 37 °C. The resultant formazan crystals were dissolved in DMSO (50 μ L/well) and measured at 570 nm 30 min later in a Synergy H1 microplate reader. Cytotoxic concentration of 50% (CC50) was calculated based on a dose–response curve excluding DMSO cytotoxicity (>1%) of the untreated control.

[2] = test system: T. cruzi amastigote forms; details: triazole with diphenyl ether substituent; ref Assunção et al.; read-out: IC50 against T. cruzi amastigote forms; cited from earlier work
[3] = LLC-MK2, T. cruzi intracellular amastigotes, Tulahuen lacZ strain, 72 h incubation
[4] = ratio of amastigote IC50 values

Compound: O=[N+]([O-])c1nccn1Cc1cc(-c2ccc(Sc3ccccc3)cc2)no1 [Compound 6o, 5-((2-Nitro-1H-imidazol-1-yl)methyl)-3-(4-(phenylthio)phenyl)isoxazole]
- SI, selectivity index: CC50 of LLC-MK2 cells/IC50 of intracellular amastigotes [1]: >4.9
- IC50 [1, 3]: 20.6 ± 0.98 µM
- activity category (active / moderately active / inactive) [1]: moderate activity
- CC50 at 72 h (Cytotoxicity assay (MTT)): > 100 µM

Compound: COc1ccc(Oc2ccc(-c3cc(Cn4ccnc4[N+](=O)[O-])on3)cc2F)cc1 [Compound 6n, 3-(3-Fluoro-4-(4-methoxyphenoxy)phenyl)-5-((2-nitro-1H-imidazol-1-yl)methyl)isoxazole]
- SI, selectivity index: CC50 of LLC-MK2 cells/IC50 of intracellular amastigotes [1]: >28.2
- IC50 [1, 3]: 3.54 ± 0.21 µM
- fold less activity than 6g [1, 4]: 5.5 fold
- CC50 at 72 h (Cytotoxicity assay (MTT)): > 100 µM

Compound: O=[N+]([O-])c1nccn1Cc1cc(-c2ccc(Oc3ccc(F)cc3)c(F)c2)no1 [Compound 6i, 3-(3-Fluoro-4-(4-fluorophenoxy)phenyl)-5-((2-nitro-1H-imidazol-1-yl)methyl)isoxazole]
- SI, selectivity index: CC50 of LLC-MK2 cells/IC50 of intracellular amastigotes [1]: >70.4
- IC50 [1, 3]: 1.42 ± 0.42 µM
- fold less active than 6b [1, 4]: 2.8 fold
- CC50 at 72 h (Cytotoxicity assay (MTT)): > 100 µM

Compound: O=[N+]([O-])c1nccn1Cc1cc(-c2ccc(Oc3ccc(OC(F)(F)F)cc3)cc2)no1 [Compound 6e, 5-((2-Nitro-1H-imidazol-1-yl)methyl)-3-(4-(4-(trifluoromethoxy)phenoxy)phenyl)isoxazole]
- SI, selectivity index: CC50 of LLC-MK2 cells/IC50 of intracellular amastigotes [1]: >80.1
- IC50 [1, 3]: 1.25 ± 0.71 µM
- CC50 at 72 h (Cytotoxicity assay (MTT)): > 100 µM

Compound: Cc1ccc(Sc2ccc(-c3cc(Cn4ccnc4[N+](=O)[O-])on3)cc2)cc1 [Compound 6q, 5-((2-Nitro-1H-imidazol-1-yl)methyl)-3-(4-(P-tolylthio)phenyl)isoxazole]
- SI, selectivity index: CC50 of LLC-MK2 cells/IC50 of intracellular amastigotes [1]: >5.8
- IC50 [1, 3]: 17.1 ± 0.24 µM
- activity category (active / moderately active / inactive) [1]: moderate activity
- CC50 at 72 h (Cytotoxicity assay (MTT)): > 100 µM

Compound: O=[N+]([O-])c1nccn1Cc1cc(-c2ccc(Sc3ccc(Cl)cc3)cc2)no1 [Compound 6p, 3-(4-((4-Chlorophenyl)thio)phenyl)-5-((2-nitro-1H-imidazol-1-yl)methyl)isoxazole]
- SI, selectivity index: CC50 of LLC-MK2 cells/IC50 of intracellular amastigotes [1]: >9.0
- IC50 [1, 3]: 11.1 ± 0.16 µM
- CC50 at 72 h (Cytotoxicity assay (MTT)): > 100 µM

Compound: COc1ccc(Oc2ccc(-c3cc(Cn4ccnc4[N+](=O)[O-])on3)cc2)cc1 [Compound 6g, 3-(4-(4-Methoxyphenoxy)phenyl)-5-((2-nitro-1H-imidazol-1-yl)methyl)isoxazole]
- SI, selectivity index: CC50 of LLC-MK2 cells/IC50 of intracellular amastigotes [1]: >155.3
- IC50 [1, 3]: 0.64 ± 0.05 µM
- CC50 at 72 h (Cytotoxicity assay (MTT)): > 100 µM

Compound: O=[N+]([O-])c1nccn1Cc1cc(-c2ccc(Oc3ccccc3)c(F)c2)no1 [Compound 6h, 3-(3-Fluoro-4-phenoxyphenyl)-5-((2-nitro-1H-imidazol-1-yl)methyl)isoxazole]
- SI, selectivity index: CC50 of LLC-MK2 cells/IC50 of intracellular amastigotes [1]: >31.4
- IC50 [1, 3]: 3.18 ± 2.18 µM
- activity category (active / moderately active / inactive) [1]: active
- CC50 at 72 h (Cytotoxicity assay (MTT)): > 100 µM

Compound: O=[N+]([O-])c1nccn1Cc1cc(-c2ccc(Oc3ccccc3)cc2)no1 [Compound 6a, 5-((2-Nitro-1H-imidazol-1-yl)methyl)-3-(4-phenoxyphenyl)isoxazole]
- SI, selectivity index: CC50 of LLC-MK2 cells/IC50 of intracellular amastigotes [1]: >82.2
- IC50 [1, 3]: 1.22 ± 0.73 µM
- fold more active than the reference drug benznidazole (BZN) [1, 4]: 4.6 fold
- fold more active against amastigote forms than its triazole analog ([1]; ratio of amastigote IC50 values, comparator is a literature value): 5.4 fold
- CC50 at 72 h (Cytotoxicity assay (MTT)): > 100 µM

Compound: O=C(Cn1ccnc1[N+](=O)[O-])NCc1ccccc1 [BZN, benznidazole, reference compound]
- SI, selectivity index: CC50 of LLC-MK2 cells/IC50 of intracellular amastigotes [1]: >17.6
- IC50 [1, 3]: 5.67 ± 0.83 µM
- CC50 at 72 h (Cytotoxicity assay (MTT)): > 100 µM

Compound: Cc1ccc(Oc2ccc(-c3cc(Cn4ccnc4[N+](=O)[O-])on3)cc2)cc1 [Compound 6f, 5-((2-Nitro-1H-imidazol-1-yl)methyl)-3-(4-(P-tolyloxy)phenyl)isoxazole]
- SI, selectivity index: CC50 of LLC-MK2 cells/IC50 of intracellular amastigotes [1]: >56.5
- IC50 [1, 3]: 1.77 ± 0.24 µM
- CC50 at 72 h (Cytotoxicity assay (MTT)): > 100 µM

Compound: O=[N+]([O-])c1nccn1Cc1cc(-c2ccc(Oc3ccc(F)cc3)cc2)no1 [Compound 6b, 3-(4-(4-Fluorophenoxy)phenyl)-5-((2-nitro-1H-imidazol-1-yl)methyl)isoxazole]
- SI, selectivity index: CC50 of LLC-MK2 cells/IC50 of intracellular amastigotes [1]: >199.4
- IC50 [1, 3]: 0.5 ± 0.51 µM
- CC50 at 72 h (Cytotoxicity assay (MTT)): > 100 µM

Compound: O=[N+]([O-])c1nccn1Cc1cc(-c2ccc(Oc3ccc(Cl)cc3)c(F)c2)no1 [Compound 6j, 3-(4-(4-Chlorophenoxy)-3-fluorophenyl)-5-((2-nitro-1H-imidazol-1-yl)methyl)isoxazole]
- SI, selectivity index: CC50 of LLC-MK2 cells/IC50 of intracellular amastigotes [1]: >64.1
- IC50 [1, 3]: 1.56 ± 0.69 µM
- CC50 at 72 h (Cytotoxicity assay (MTT)): > 100 µM

Compound: O=[N+]([O-])c1nccn1Cc1cn(-c2ccc(Oc3ccccc3)cc2)nn1 [Compound 4b]
- IC50 [2]: 6.6 µM

Compound: O=[N+]([O-])c1nccn1Cc1cc(-c2ccc(Oc3ccc(Cl)c(Cl)c3)cc2)no1 [Compound 6d, 3-(4-(3,4-Dichlorophenoxy)phenyl)-5-((2-nitro-1H-imidazol-1-yl)methyl)isoxazole]
- SI, selectivity index: CC50 of LLC-MK2 cells/IC50 of intracellular amastigotes [1]: >35.9
- IC50 [1, 3]: 2.79 ± 0.93 µM
- activity category (active / moderately active / inactive) [1]: active
- CC50 at 72 h (Cytotoxicity assay (MTT)): > 100 µM

Compound: O=[N+]([O-])c1nccn1Cc1cc(-c2ccc(Oc3ccc(Cl)c(Cl)c3)c(F)c2)no1 [Compound 6k, 3-(4-(3,4-Dichlorophenoxy)-3-fluorophenyl)-5-((2-nitro-1H-imidazol-1-yl)methyl)isoxazole]
- SI, selectivity index: CC50 of LLC-MK2 cells/IC50 of intracellular amastigotes [1]: >11.8
- IC50 [1, 3]: 8.5 ± 2.06 µM
- activity category (active / moderately active / inactive) [1]: moderate activity
- CC50 at 72 h (Cytotoxicity assay (MTT)): > 100 µM

Compound: O=[N+]([O-])c1nccn1Cc1cc(-c2ccc(Oc3ccc(Cl)cc3)cc2)no1 [Compound 6c, 3-(4-(4-Chlorophenoxy)phenyl)-5-((2-nitro-1H-imidazol-1-yl)methyl)isoxazole]
- SI, selectivity index: CC50 of LLC-MK2 cells/IC50 of intracellular amastigotes [1]: >99.0
- IC50 [1, 3]: 1.01 ± 1.13 µM
- fold less active than 6b [1, 4]: 2 fold
- CC50 at 72 h (Cytotoxicity assay (MTT)): > 100 µM

Compound: Cc1ccc(Oc2ccc(-c3cc(Cn4ccnc4[N+](=O)[O-])on3)cc2F)cc1 [Compound 6m, 3-(3-Fluoro-4-(P-tolyloxy)phenyl)-5-((2-nitro-1H-imidazol-1-yl)methyl)isoxazole]
- SI, selectivity index: CC50 of LLC-MK2 cells/IC50 of intracellular amastigotes [1]: >13.5
- IC50 [1, 3]: 7.41 ± 3.22 µM
- fold less active than 6f [1, 4]: 4 fold
- CC50 at 72 h (Cytotoxicity assay (MTT)): > 100 µM

Compound: O=[N+]([O-])c1nccn1Cc1cc(-c2ccc(Oc3ccc(OC(F)(F)F)cc3)c(F)c2)no1 [Compound 6l, 3-(3-Fluoro-4-(4-(trifluoromethoxy)phenoxy)phenyl)-5-((2-nitro-1H-imidazol-1Yl)methyl)isoxazole]
- SI, selectivity index: CC50 of LLC-MK2 cells/IC50 of intracellular amastigotes [1]: >14.7
- IC50 ([1]; TULAHUEN, LLC-MK2, 72 h): 3.77 ± 0.07 µM
